Measured values reported in US10259809B2, “Fluorinated imidazo[4,5-C]quinoline derivatives as inhibitors of bromodomain containing proteins” (Trillium Therapeutics Inc., priority 2015, dated 2019).

How the values were obtained:
[1] = test system: GBM cell; conditions: in vitro and in vivo; cited from earlier work
[2] = test system: AML2; experiment: Oncology cell growth assay, AML2; assay type: cell-based, human; conditions: AML2, AML (acute myeloid leukemia), gIC50, 72 hours
Procedure: (§1) Human cell lines were cultured in RPMI-1640 containing 10% fetal bovine serum, 1000 viable cells per well were plated in 384-well black flat bottom polystyrene plates (Greiner #781086) in 48 ˜I of culture media. All plates were placed at 5% CO2, 37° C. overnight. The following day one plate was harvested with CeliTiter-Glo (CTG, Promega #G7573) for a time equal to 0 (TO) measurement and compound (20 point titration from 14.7 uM to 7 pM) was added to the remaining plates. The final concentration of DMSO in all wells was 0.15%. Cells were incubated for 72 hours or the indicated time and each plate was developed with CeliTiterGlo reagent using a volume equivalent to the cell culture volume in the wells. Plates were shaken for approximately 2 minutes and chemiluminescent signal was read on the Analyst GT (Molecular Devices) or EnVision Plate Reader (Perkin Elmer).
(§2) Results are expressed as a percent of the TO and plotted against the compound concentration. The TO value was normalized to 100% and represents the number of cells at time of compound addition and the concentration response data were fit with a 4 parameter curve fit using XLfit software (model 205). […] The Ymin-TO value was determined by subtracting the TO value (100%) from the Ymin value (%) determined from the fit of the concentration response curve. […]

[3] = test system: HL60; experiment: Oncology cell growth assay, HL60; assay type: cell-based, human; conditions: HL60, Promyelocytic leukemia, gIC50, 72 hours
Procedure: as §1, §2

[4] = test system: TEX; experiment: Oncology cell growth assay, TEX; assay type: cell-based, human; conditions: AML (acute myeloid leukemia), gIC50, 72 hours
Procedure: as §1, §2

[5] = test system: MV4-11; experiment: Oncology cell growth assay, MV4-11; assay type: cell-based, human; conditions: MV4-11, AML (acute myeloid) leukemia, gIC50, 72 hours
Procedure: as §1, §2

[6] = test system: MOLT4; experiment: Oncology cell growth assay, MOLT4; assay type: cell-based, human; conditions: MOLT4, acute lymphoid leukemia; gIC50, 72 hours
Procedure: as §1, §2

[7] = test system: RPMI-8226; experiment: Oncology cell growth assay, RPMI-8226; assay type: cell-based, human; conditions: RPMI-8226, Multiple myeloma, gIC50, 72 hours
Procedure: as §1, §2

[8] = test system: MM.1S; experiment: Oncology cell growth assay, MM.1S; assay type: cell-based, human; conditions: Multiple myeloma, gIC50, 72 hours
Procedure: as §1, §2

[9] = test system: SK-OV-3; experiment: Oncology cell growth assay, SK-OV-3; assay type: cell-based, human; conditions: SK-OV-3, Ovarian cancer, gIC50, 72 hours
Procedure: as §1, §2

[10] = test system: MV4-11 human AML xenograft; experiment: MV4-11 subcutaneous human AML xenograft model, efficacy; assay type: in vivo, NOD SCID mice; conditions: PO
Procedure: • Species & Strain: NOD SCID mice • Age: 7-8 week • Total Number: 60 mice plus 40% spare • Sex: Female • Body Weight: 18 to 22 g Animal Maintenance
Groups and treatments started when the mean tumor volume reached 138 mm^3. Based on the tumor volume, mice were randomly assigned to respective groups using a computer-generated randomization procedure.
Each mouse was inoculated subcutaneously on the right flank with MV4-11 tumor cells ([…]) in 0.1 ml of IMDM without serum for tumor development. The treatment started when the mean tumor size reached approximately 138 mm^3. Mice were randomized into groups.
During the course of study, the tumor size was measured twice a week in two dimensions using a caliper, and the volume was expressed in mm^3 using the formula: TV=a×b2/2 where a and b were the long and short diameters of the tumor, respectively. The tumor size was then used for T/C and TGI (tumor growth inhibition) values, which were indicators of anti-tumor effectiveness. T/C was calculated with the formula [(Td−T0)/(Cd−C0)]×100%, TGI is calculated with the formula [1−(Td−T0)/(Cd−C0)]×100%. Td and Cd were the mean tumor volumes (or median tumor volumes) of the treated and control animals, and T0 and C0 were the mean tumor volumes of the treated and control animals at the start of the experiment.

[11] = MV4-11 xenograft model, tolerance (body weight, clinical signs); assay type: in vivo
Procedure: For routine monitoring, all study animals were monitored not only tumor growth but also behavior such as mobility, food and water consumption (by cage side checking only), body weight (BW), eye/hair matting and any other abnormal effect. Any mortality and/or abnormal clinical signs would be recorded.
Body weights of all animals were measured twice weekly throughout the study.

[12] = target: T1, BRD2-1: Domain 1 of BRD2 (Homo sapiens, UniProt P25440); experiment: Bromodomain binding assay (Example 6), BRD2-1
T1 construct: BRD2-1: Domain 1 of BRD2
T1 sequence (P25440 74-180 limits assumed): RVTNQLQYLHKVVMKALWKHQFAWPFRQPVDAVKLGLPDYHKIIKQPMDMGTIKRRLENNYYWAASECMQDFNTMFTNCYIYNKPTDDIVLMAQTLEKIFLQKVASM
Procedure: (§3) The binding of the compounds of the application to bromodomains BRD2, BRD3 and BRD4 was assessed using a time resolved fluorescent resonance energy transfer binding assay (Alpha Screen Technology), that measures the binding of an acetylated histone peptide to the bromodomain protein.
(§4) The bromodomain protein, histone peptide and a variable concentration of test compound were incubated together to reach thermodynamic equilibrium.

[13] = target: T2, BRD3-1: Domain 1 of BRD3 (Homo sapiens, UniProt Q15059); experiment: Bromodomain binding assay (Example 6), BRD3-1
T2 construct: BRD3-1: Domain 1 of BRD3
T2 sequence (Q15059 34-140 limits assumed): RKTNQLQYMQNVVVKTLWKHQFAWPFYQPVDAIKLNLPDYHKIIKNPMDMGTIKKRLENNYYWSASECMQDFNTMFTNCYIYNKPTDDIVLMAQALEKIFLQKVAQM
Procedure: as §3, §4

[14] = target: T3, BRD4-FL: Full length BRD4 (Homo sapiens, UniProt O60885); experiment: Bromodomain binding assay (Example 6), BRD4-FL
T3 construct: BRD4-FL: Full length BRD4
Procedure: as §3, §4

[15] = target: T4, BRD2-1 (Homo sapiens, UniProt P25440); experiment: BET Bromodomain AlphaScreen assay (Example 9), BRD2-1; assay type: binding
T4 construct: BRD2-1: Domain 1 of BRD2
T4 sequence (P25440 74-180 limits assumed): as the sequence (P25440 74-180 limits assumed) above
Procedure: (§5) The reader assay was a binding assay using the AlphaScreen technology fluorescence energy resonance transfer (FRET) assay. The biotinylated peptide binding to the reader domain of His-tagged protein is monitored by the singlet oxygen transfer from the Streptavidin-coated donor beads to the AlphaScreen Ni-chelate acceptor beads.
(§6) Reaction buffer: 50 mM Hepes, pH7.5, 100 mM NaCl, 0.05% CHAPS, 0.1% BSA, and 1% DMSO (Buffer and DMSO concentration may be different for different reader).
(§7) Biotin-peptide; sequences were different for different targets.
(§8) Reaction Procedure: • 1. Deliver 4× BRD in wells of reaction plate except No BRD control wells. Add buffer instead. • 2. Deliver compounds in 100% DMSO into the BRD mixture by Acoustic technology (Echo550; nanoliter range). Spin down and pre-incubation for 30 min. • 3. Deliver 4× Ligand. Spin and shake. • 4. Incubate for 30 min at room temperature with gentle shaking. • 5. Deliver 4× donor beads. Spin and shake. • 6. Deliver 4× acceptor beads. Spin and shake. Then gentle shaking in the dark for 60 min. • 7.

[16] = target: T5, BRD3-1 (Homo sapiens, UniProt Q15059); experiment: BET Bromodomain AlphaScreen assay (Example 9), BRD3-1; assay type: binding
T5 construct: BRD3-1: Domain 1 of BRD3
T5 sequence (Q15059 34-140 limits assumed): as the sequence (Q15059 34-140 limits assumed) above
Procedure: as §5, §6, §7, §8

[17] = target: T6, BRD4-FL (Homo sapiens, UniProt O60885); experiment: BET Bromodomain AlphaScreen assay (Example 9), BRD4-FL; assay type: binding
T6 construct: BRD4-FL: Full length BRD4
Procedure: as §5, §6, §7, §8

[18] = Liver microsome stability, mouse; assay type: in vitro ADME, mouse (CD-1; conditions: male, CD-1, mouse, pooled mouse liver microsomes, 1 μM compound, 0.5 mg/ml microsomes, 37° C., read-out: % recovery Mouse Liver Microsomes (MLM) (30 min)
Procedure: (§9) Working stocks were initially diluted to a concentration of 40.0 μM in 0.1 M potassium phosphate buffer before addition to the reaction vials. Pooled mouse (CD-1, male) or human (50 donors) liver microsomes were utilized at a final concentration of 0.5 mg/ml. Duplicate wells were used for each time point (0 and 30 minutes). Reactions were carried out at 37° C. in a shaker, and the final concentration of DMSO was kept constant at 0.01%. The final volume for each reaction was 100 μL, which includes the addition of an NADPH-Regeneration solution (NRS) mix. This NRS mix was comprised of glucose 6-phosphate dehydrogenase (0.4 U/mL), NADP+ (1.3 mM), MgCl2 (3.3 mM), and glucose 6-phosphate (3.3 mM) in assay mixtures. Upon completion of the 30 minute time point, reactions were terminated by the addition of 1.5-volumes (150 μL) of ice-cold, acetonitrile with 0.5% formic acid and internal standard. Samples were then centrifuged at 4,000 rpm for 10 minutes to remove debris and precipitated protein. Approximately 150 μL of supernatant was subsequently transferred to a new 96 well microplate for LC/MS analysis.
(§10) Narrow-window mass extraction LC/MS analysis was performed for all samples using a Waters Xevo quadrupole time-of-flight (QTof) mass spectrometer and an ACQUITY UPLC system, to determine relative peak areas of parent compound.

[19] = Liver microsome stability, human; assay type: in vitro ADME; conditions: pooled human liver microsomes (50 donors), 1 μM compound, 0.5 mg/ml microsomes, 37° C., read-out: % recovery Human Liver Microsomes (HLM) (30 min)
Procedure: as §9, §10

[20] = test system: ABC DLBCL; conditions: combination with drugs targeting B-cell receptor signaling; cited from earlier work
[21] = test system: prostate cancer cell lines with activated AR signaling; conditions: cited from earlier work
[22] = test system: AR target genes; conditions: AR-positive cells; cited from earlier work

In the case of `COc1cc2c(cc1-c1c(C)noc1C)ncc1[nH]c(=O)n([C@H](C)c3ccccn3)c12` [I-BET151], the GBM cell proliferation [1] is listed as “reduced GBM cell proliferation in vitro and in vivo”.
With `COc1cc2c(cc1-c1c(C)noc1C)ncc1nc(C3CCOCC3)n([C@H](C)COC(F)F)c12.Cl` [2(g)·HCl] the IC50 [2] was 18 ± 2 nM, the IC50 [3] was 51 ± 3 nM and the IC50 [4] was 23 ± 2 nM. It also gave an IC50 [5] of 14 ± 7 nM, an IC50 [6] of 1140 nM and an IC50 [7] of 303 ± 6 nM. For the same molecule, the IC50 [8] was 17 ± 4 nM, the IC50 [9] was 2180 ± 1440 nM and the antitumor activity ([10]; 30 mg/kg and 50 mg/kg) was “significant antitumor activity”. For the same molecule, the antitumor activity ([10]; low-dose 10 mg/kg, QD × 14) was “moderate antitumor activity”, the body weight loss ([11]; 50 mg/kg PO, during the dosing period) was 9.1% and the “body weight after dose suspension” value ([11]; 50 mg/kg, after a two days dose suspension on Day 8 and 9) was “maintained or recovered”.
`COc1cc2c(cc1-c1c(C)noc1C)ncc1nc(C3CC3)n([C@H](C)COC(F)F)c12.Cl` [2(l), 4-[2-cyclopropyl-1-[(1R)-2-(difluoromethoxy)-1-methyl-ethyl]-8-methoxy-imidazo[4,5-c]quinolin-7-yl]-3,5-dimethyl-isoxazole hydrochloride] gave an IC50 [12] of 42 nM, an IC50 [13] of 21 nM and an IC50 [14] of 33 nM. For the same molecule, the EC50 [15] was 42.2 nM, the EC50 [16] was 20.7 nM and the EC50 [17] was 33.1 nM. It also gave a recovery at 30 min, 1 μM [18] of 3%, a recovery at 30 min, 1 μM [19] of 43.6% and an IC50 ([2]; Homo sapiens) of 15 ± 1 nM. It also gave an IC50 ([3]; Homo sapiens, HL-60) of 179 ± 10 nM, an IC50 ([4]; Homo sapiens) of 52 ± 73 nM and an IC50 ([5]; Homo sapiens) of 156 ± 43 nM. It also gave an IC50 ([7]; Homo sapiens) of 109 ± 32 nM, an IC50 ([8]; Homo sapiens, MM1.S) of 94 ± 14 nM and an IC50 ([9]; Homo sapiens) of 360 ± 10 nM. For the same molecule, the antitumor activity ([10]; 30 mg/kg and 50 mg/kg) was “significant antitumor activity” and the tolerance ([11]; all dose levels (30 and 50 mg/kg PO)) was “tolerated well”.
In the case of `Cc1sc2c(c1C)C(c1ccc(Cl)cc1)=N[C@@H](CC(=O)OC(C)(C)C)c1nnc(C)n1-2` [JQ-1], the drug-drug synergy [20] is given as “combined favorably with multiple drugs targeting B-cell receptor signaling”, the “apoptosis and cell cycle arrest” value [21] is given as “sensitive to JQ1-induced apoptosis and cell cycle arrest” and the “levels of transcription of AR target genes” value [22] is given as “globally reduced the levels of transcription of AR target genes”.
